Test results from paper PMC3489161 (Pharmaceutical research, 2011).
Where “and” joins values, the source holds several entries; their conditions need not be identical. Equal entries are not always repeated. Entries after “also recorded” stand apart in the source; their conditions may differ.

Tests used:
[1] = 14C-lapatinib distribution after intravenous dosing; format: in vivo, mice; conditions: 10 mg/kg i.v., 30 min
[2] = 14C-lapatinib radiochemical integrity in plasma and tissues by HPLC; format: in vivo, mice
[3] = tested on: 231-BR-HER2 lapatinib-treated lines and 231-BR-HER2 non-treated lines; test: Cell viability; format: cell-based, human; conditions: 8 or 10 μM lapatinib, 72 hours
[4] = tested on: 231-BR-HER2 lapatinib-treated lines and 231-BR-HER2 non-treated lines; test: Clonogenic assay of ex vivo cultures; format: cell-based, human; conditions: 4 μM lapatinib, stained on day 12
HER2 = test: Western blot of HER2 expression in ex vivo cultures; format: cell-based, human; conditions: 100 mg/kg p.o. twice daily for 24 days
[5] = female, NuNu, mouse, in vivo
[6] = due to active efflux transport at the BBB; cited from earlier work
231-BR-HER2 = conditions: read-out: IC50 for inhibition of 231-BR-HER2 proliferation in vitro; cited from earlier work
[7] = tested on: brain metastases of HER2+ breast cancer; conditions: monotherapy; cited from earlier work
HER2+ brain metastases = conditions: cited from earlier work
[8] = mice; cited from earlier work
[9] = cited from earlier work

- Average brain metastasis concentration less than in peripheral tissues [1]: 1-2 orders of magnitude
- Plasma 14C tracer confirmed as intact 14C-lapatinib ([2]; 30 min after 10 mg/kg i.v.): > 98%
- Tracer intact in plasma and tissues by HPLC ([2]; 2 hours after oral administration, 100 mg/kg): > 92%
- Concentration in some brain metastases as % of that in peripheral lesions [5]: ~50%
- Share of brain metastases with elevated 14C-lapatinib delivery [5]: > 85%
- Calculated % dose to brain ([5]; po, 100 mg/kg): 0.0025%
Structure (SMILES): CS(=O)(=O)CCNCc1ccc(-c2ccc3ncnc(Nc4ccc(OCc5cccc(F)c5)c(Cl)c4)c3c2)o1 [lapatinib, N-{3-chloro-4-[(3-fluorobenzyl)oxy]phenyl}-6-[5-({[2-(methylsulfonyl)ethyl]amino}methyl)-2-furyl]-4-quinazolinamine]
- Sensitivity of ex vivo cell lines to lapatinib, viability by MTT [3]: sensitive to lapatinib inhibition; also recorded: remain sensitive to lapatinib in vitro
- Inhibitory effect in clonogenic assays [4]: comparable between lapatinib- and vehicle-treated cultures
- HER2 expression throughout in vivo treatment and ex vivo culture (HER2): maintained
- Brain uptake as % of plasma [6]: < 10%
- IC50 (231-BR-HER2): 8 µM
- Patients achieving an objective response [7]: 6%
- Patients experiencing a >20% reduction in lesion volume [7]: 21%
- Reduction in formation/number of large brain metastases (HER2+ brain metastases; mice, same dose and tumor model): ~50% and 50-53%
- Number of micrometastases (HER2+ brain metastases; mice): no change
- Extent of phosphorylated HER2 staining within HER2+ brain metastases (HER2+ brain metastases; treatment initiated early): decreased
- Plasma half-life [8]: 4 to 6 h
- Volume of distribution [9]: 9.5 L/kg
